The record followed here is patent publication US20220002279A1, “NOVEL IMIDAZOLE DERIVATIVE” (priority 2018, published 2022).

Test [1] deals with T1, Escherichia coli LpxC enzyme (Escherichia coli, UniProt P0A725).
T1 construct: made in house; host or cells: Escherichia coli
T1 sequence (P0A725 1-305): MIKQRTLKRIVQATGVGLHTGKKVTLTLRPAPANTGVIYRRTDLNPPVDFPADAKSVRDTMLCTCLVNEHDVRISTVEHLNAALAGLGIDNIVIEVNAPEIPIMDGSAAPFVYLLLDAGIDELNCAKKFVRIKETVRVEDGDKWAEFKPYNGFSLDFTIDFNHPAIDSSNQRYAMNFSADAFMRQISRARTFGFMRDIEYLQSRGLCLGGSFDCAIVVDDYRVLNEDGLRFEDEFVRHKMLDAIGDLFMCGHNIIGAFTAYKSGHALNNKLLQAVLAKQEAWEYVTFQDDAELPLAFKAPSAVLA
Nature of the test: Inhibitory activity on Escherichia coli LpxC enzyme (fluorescamine method). It is filed as biochemical. Here is the method:
To assay the activity of Escherichia coli LpxC enzyme, LpxC was reacted with its substrate, UDP-3-O-(R-3-hydroxymyristoyl)-N-acetylglucosamine, and the amount of the reaction product was quantified by the amino groups present in the product
The reaction was terminated by the addition of 1.0 mg/mL-fluorescamine dissolved in a solvent obtained by mixing an equal amount of acetonitrile and dimethylformamide with the reaction mixture, and then, a 0.2 mol/L-sodium phosphate buffer solution (pH 8.0) was added thereto, and the amount of the reaction product was detected at an excitation wavelength/fluorescence wavelength=390 nm/495 nm. An inhibition curve was obtained by performing the aforementioned reaction in the presence of various concentrations of test compounds.

Test [2] relates to Klebsiella pneumoniae strain ATCC13883. The experiment in a line: Antimicrobial activity, MIC by broth microdilution. The conditions noted are these: ATCC13883, cation-adjusted Mueller-Hinton broth, about 5×10^5 CFU/mL, 35° C., about 18 hours, read-out: MIC Klebsiella pneumoniae ATCC13883. It counts as cell-based. The procedure, abridged: (§1)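 CLSI-based broth microdilution in cation-adjusted Mueller-Hinton broth, inoculum about 5×10^5 CFU/mL from overnight heart infusion agar culture. Incubation 35° C. about 18 h; MIC is the lowest concentration with no visible growth.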

The subject of test [3] is Escherichia coli strain ATCC25922. The experiment in a line: Antimicrobial activity, MIC by broth microdilution. The conditions noted are these: ATCC25922, 18 h, cation-adjusted Mueller-Hinton broth, about 5×10^5 CFU/mL, 35° C., about 18 hours, read-out: MIC Escherichia coli ATCC25922. It counts as cell-based. The procedure, abridged: as §1
On the technique in general: In broth dilution the organism is exposed to a series of concentrations in liquid medium.

Test [4] concerns Pseudomonas aeruginosa strain ATCC27853. Nature of the test: Antimicrobial activity, MIC by broth microdilution. It is filed as cell-based. The conditions noted are these: ATCC27853, 18 h, cation-adjusted Mueller-Hinton broth, about 5×10^5 CFU/mL, 35° C., about 18 hours, read-out: MIC Pseudomonas aeruginosa ATCC27853. Put shortly:
as §1

The mark [5] stands for this setting: fluorescamine detection, 3.1 nmol/L enzyme, 20 μmol/L substrate, pH 6.5, 120 min, read-out: IC50 (inhibitory activity on Escherichia coli LpxC enzyme, Fluoresamine method).

For orientation: IC50 means the concentration that gives 50% inhibition. Broadly, the MIC is the smallest concentration in the dilution series that meets the test's criterion for growth inhibition.

Values after ≈ are worked out from the molar mass of the structure shown. Where two headings read alike, the source gives them in different places. A value given as a limit tells only on which side of the number the result lay.

With `C[C@H](O)c1nccn1Cc1cc(-c2ccc(C#CC3COC3)cc2)on1` [Compound 44, (1S)-1-{1-[(5-{4-[(oxetan-3-yl)ethynyl]phenyl}-1,2-oxazol-3-yl)methyl]-1H-imidazol-2-yl}ethan-1-ol], the IC50 in test [1] (setting [5]) worked out at 0.0227 µM. Moreover, the MIC in test [2] turned out to be 2 mg/L (≈ 5.72 µM); in test [3], 2 mg/L (≈ 5.72 µM); in test [4] it was 128 mg/L (≈ 366 µM).
Consider `CNC1(C#Cc2ccc(-c3cc(Cn4ccnc4[C@H](C)O)no3)cc2)CC1` [Compound 45, (1S)-1-(1-{[5-(4-{[1-(Methylamino)cyclopropyl]ethynyl}phenyl)-1,2-oxazol-3-yl]methyl}-1H-imidazol-2-yl)ethan-1-ol], for which the IC50 in test [1] came to 0.268 µM. Also, the results for the MIC in test [2], in test [3] and in test [4] were 0.5 mg/L (≈ 1.38 µM), 0.25 mg/L (≈ 0.69 µM) and 128 mg/L (≈ 353 µM), respectively.
Regarding `C[C@H](O)c1nccn1Cc1cc(-c2ccc(C#CC3C4COCC34)cc2)on1` (stereo partly drawn) [Compound 46, (1S)-1-{1-[(5-{4-[(3-oxabicyclo[3.1.0]hexan-6-yl)ethynyl]phenyl}-1,2-oxazol-3-yl)methyl]-1H-imidazol-2-yl} ethan-1-ol], the 50% inhibitory concentration (IC50) in test [1] (setting [5]) worked out at 0.0134 µM. For the same compound, the MIC is 0.12 mg/L (≈ 0.32 µM) in test [2], 0.12 mg/L (≈ 0.32 µM) in test [3] and over 32 mg/L in test [4].
`C[C@H](O)c1nccn1Cc1cc(-c2ccc(C#CC3(C)COC3)cc2)on1` [Compound 47, (1S)-1-{1-[(5-{4-[(3-methyloxetan-3-yl)ethynyl]phenyl}-1,2-oxazol-3-yl)methyl]-1H-imidazol-2-yl} ethan-1-ol]: in test [1] (setting [5]), the half-maximal inhibitory concentration (IC50) came to 0.0193 µM. In addition, the MIC is 1 mg/L (≈ 2.75 µM) in test [2], 0.5 mg/L (≈ 1.38 µM) in test [3] and over 128 mg/L in test [4].
Take `C[C@H](O)c1nccn1Cc1cc(-c2ccc(C#CCO)cc2)on1` [Compound 48, 3-{4-[3-((2-[(1S)-1-hydroxyethyl]-1H-imidazol-1-yl}methyl)-1,2-oxazol-5-yl]phenyl}prop-2-yn-1-ol]: in test [1] (setting [5]), the IC50 came to 0.362 µM. In addition, the MIC was 32 mg/L (≈ 99 µM) in test [2], 16 mg/L (≈ 49.5 µM) in test [3] and over 32 mg/L in test [4].
Consider `C[C@H](O)c1nccn1Cc1cc(-c2ccc(C#CC3CCOC3)cc2)on1` (stereo partly drawn) [Compound 49, (1S)-1-{1-[(5-{4-[(oxolan-3-yl)ethynyl]phenyl}-1,2-oxazol-3-yl)methyl]-1H-imidazol-2-yl}ethan-1-ol], for which the IC50 in test [1] (setting [5]) turned out to be 0.0296 µM. Moreover, the minimal inhibitory concentration (MIC) in test [2] is 1 mg/L (≈ 2.75 µM); in test [3], 0.5 mg/L (≈ 1.38 µM); in test [4], over 32 mg/L.
Regarding `C[C@H](O)c1nccn1Cc1cc(-c2ccc(C#CC3(N(C)C)CC3)cc2)on1` [Compound 50, (1S)-1-(1-{[5-(4-{[1-(dimethylamino)cyclopropyl]ethynyl}phenyl)-1,2-oxazol-3-yl]methyl}-1H-imidazol-2-yl)ethan-1-ol], the IC50 in test [1] (setting [5]) was 0.205 µM. In addition, the MIC in test [2] is 4 mg/L (≈ 10.6 µM); in test [3], 2 mg/L (≈ 5.31 µM); in test [4], over 128 mg/L.
`C[C@H](O)c1nccn1Cc1cc(-c2ccc(C#CCNC3CC3)cc2)on1` [Compound 51, (1S)-1-{1-[(5-(4-[3-(cyclopropylamino)prop-1-yn-1-yl]phenyl}-1,2-oxazol-3-yl)methyl]-1H-imidazol-2-yl}ethan-1-ol]: in test [1] (setting [5]), the IC50 amounted to 0.182 µM. The MIC in test [2] was 2 mg/L (≈ 5.52 µM); in test [3], 1 mg/L (≈ 2.76 µM); in test [4], over 32 mg/L.
The like results for `C[C@H](O)c1nccn1Cc1cc(-c2ccc(C#CC3(O)CC3)cc2)on1` [Compound 52, 1-({4-[3-({2-[(1S)-1-hydroxyethyl]-1H-imidazol-1-yl}methyl)-1,2-oxazol-5-yl]phenyl}ethynyl)cyclopropan-1-ol] were, in that order, 0.0835 µM, 4 mg/L (≈ 11.4 µM), 2 mg/L (≈ 5.72 µM) and 128 mg/L (≈ 366 µM).
With `COCC#Cc1ccc(-c2cc(Cn3ccnc3[C@H](C)O)no2)cc1` [Compound 53, (1S)-1-[l-((5-[4-(3-methoxyprop-1-yn-1-yl)phenyl]-1,2-oxazol-3-yl}methyl)-1H-imidazol-2-yl]ethan-1-ol], the IC50 in test [1] (setting [5]) was 0.0817 µM. Further, the MIC in test [2] was 2 mg/L (≈ 5.93 µM); in test [3], 4 mg/L (≈ 11.9 µM); in test [4], over 128 mg/L.
The like results for `CC(O)CN1C[C@@H]2[C@@H](C#Cc3ccc(-c4cc(Cn5ccnc5[C@H](C)O)no4)cc3)[C@@H]2C1` (stereo partly drawn) [Compound 55, 1-[(1R,5S,6s)-6-({4-[3-({2-[(1S)-1-hydroxyethyl]-1H-imidazol-1-yl}methyl)-1,2-oxazol-5-yl]phenyl}ethynyl)-3-azabicyclo[3.1.0]hexan-3-yl]propan-2-ol] were, in that order, 0.0977 µM, 1 mg/L (≈ 2.31 µM), 0.5 mg/L (≈ 1.16 µM) and 16 mg/L (≈ 37 µM).
Take `C[C@H](O)c1nccn1Cc1cc(-c2ccc(C#C[C@@H]3[C@H]4CN(C(CO)CO)C[C@@H]34)cc2)on1` [Compound 56, 2-[(1R,5S,6s)-6-({4-[3-((2-[(1S)-1-hydroxyethyl]-1H-imidazol-1-yl}methyl)-1,2-oxazol-5-yl]phenyl}ethynyl)-3-azabicyclo[3.1.0]hexan-3-yl]propan-1,3-diol]: the IC50 in test [1] (setting [5]) stood at 0.0837 µM. Besides, the MIC in test [2] amounted to 2 mg/L (≈ 4.46 µM); in test [3] it was 1 mg/L (≈ 2.23 µM); in test [4], 8 mg/L (≈ 17.8 µM).
On to `COCC(O)CN1C[C@@H]2[C@@H](C#Cc3ccc(-c4cc(Cn5ccnc5[C@H](C)O)no4)cc3)[C@@H]2C1` (stereo partly drawn) [Compound 57, 1-[(1R,5S,6s)-6-({4-[3-((2-[(1S)-1-hydroxyethyl]-1H-imidazol-1-yl}methyl)-1,2-oxazol-5-yl]phenyl}ethynyl)-3-azabicyclo[3.1.0]hexan-3-yl]-3-methoxypropan-2-ol], for which, in test [1] (setting [5]), the IC50 was 0.071 µM. Moreover, the results for the MIC in test [2], in test [3] and in test [4] were 0.5 mg/L (≈ 1.08 µM), 0.5 mg/L (≈ 1.08 µM) and 8 mg/L (≈ 17.3 µM), respectively.
As for `C[C@H](O)c1nccn1Cc1cc(-c2ccc(C#C[C@@H]3[C@H]4CN(C5COC5)C[C@@H]34)cc2)on1` [Compound 59, (1S)-1-(1-{[5-(4-{[(1R,5S,6s)-3-(Oxetan-3-yl)-3-azabicyclo[3.1.0]hexan-6-yl]ethynyl}phenyl)-1,2-oxazol-3-yl]methyl}-1H-imidazol-2-yl)ethan-1-ol], in test [1], 0.0355 µM corresponded to half-maximal inhibition (IC50). Further, the MIC was 0.5 mg/L (≈ 1.16 µM) in test [2], 0.5 mg/L (≈ 1.16 µM) in test [3] and over 16 mg/L in test [4].
On to `CNCCC(=O)N1C[C@@H]2[C@@H](C#Cc3ccc(-c4cc(Cn5ccnc5[C@H](C)O)no4)cc3)[C@@H]2C1` [Compound 63, 1-[(1R,5S,6s)-6-({4-[3-({2-[(1S)-1-hydroxyethyl]-1H-imidazol-1-yl}methyl)-1,2-oxazol-5-yl]phenyl}ethynyl)-3-azabicyclo[3.1.0]hexan-3-yl]-3-(methylamino)propan-1-one], for which the concentration for half-maximal inhibition (IC50) in test [1] (setting [5]) is 0.105 µM. Besides, the figures for the MIC in test [2], in test [3] and in test [4] were 16 mg/L (≈ 34.8 µM), 8 mg/L (≈ 17.4 µM) and 8 mg/L (≈ 17.4 µM), respectively.
On to `COCCC#Cc1ccc(-c2cc(Cn3ccnc3[C@H](C)O)no2)cc1` [Compound 65, (1S)-1-[l-({5-[4-(4-methoxybut-1-yn-1-yl)phenyl]-1,2-oxazol-3-yl)methyl)-1H-imidazol-2-yl]ethan-1-ol], for which the IC50 in test [1] (setting [5]) was 0.0391 µM. In addition, the minimum inhibitory concentration (MIC) in test [2] was 1 mg/L (≈ 2.85 µM); in test [3], 0.5 mg/L (≈ 1.42 µM); in test [4], over 128 mg/L.
